Source: patent publication US10662164B2, “Non-beta lactam antibiotics” (University of Notre Dame du Lac, priority 2014, dated 2020)
Converted amounts (≈) assume the structure as drawn. Where two headings read alike, the source gives them in different places. Marks after values point to notes of the source that are not given here. One block for each compound: values may come before it.

Columns and labels:
E. faecalis 99 (Van R) = assay: MIC determination; type: cell-based; conditions: Enterococcus faecalis; vancomycin-resistant clinical isolate; Tables 1 and 5
Description: (§1) The ESKAPE organisms (E. faecium NCTC (ATCC 19734), S. aureus ATCC 29213, K. pneumonia ATCC 700603, A. baumannii ATCC 17961, P. aeruginosa ATCC 17853, E. aerogenes ATCC 35029) and E. coli ATCC 25922) in the initial screen, S. aureus ATCC 27660, S. epidermis ATCC 35547, S. haemolyticus ATCC 29970, S. oralis ATCC 9811, S. pyogenes ATCC 49399, B. cereus ATCC 13061, B. licheniformis ATCC 12759, and E. faecalis ATCC 29212 were purchased from the American Type Culture Collection (Manassas, Va., USA). S. aureus strains NRS100, NRS119, NRS120, VRS1, and VRS2 were obtained from the Network on Antimicrobial Resistance in Staphylococcus aureus (Chantilly, Va., USA). E. faecalis strains 201 and 99, and E. faecium strains 119-39A and 106 were collected from Wayne State University School of Medicine.
(§2) The procedure for MIC determination was the same as previously reported (Tran et al., Am. J. Clin. Dermatol. 2015; doi 10.1007/S40257-015-0125-9).

E. faecalis 201 (Van S) = assay: MIC determination; type: cell-based; conditions: Enterococcus faecalis; vancomycin-susceptible clinical isolate; Tables 1 and 5; read-out: MIC
Description: as §1, §2

E. faecium 106 (Van R) [1] = assay: MIC determination; type: cell-based; conditions: Enterococcus faecium
Description: as §1, §2

B. cereus ATCC 13061 = assay: MIC determination; type: cell-based; conditions: Bacillus cereus, ATCC13061; Tables 1 and 5; read-out: MIC
Description: as §1, §2

S. aureus NRS119 = assay: MIC determination; type: cell-based; conditions: Staphylococcus aureus, mecA positive, linezolid-resistant, Tables 1 and 5, read-out: MIC
Description: as §1, §2

[2] = test system: S. haemolyticus ATCC 29970; assay: MIC determination; type: cell-based; conditions: Staphylococcus haemolyticus, ATCC29970; Tables 1 and 5; read-out: MIC
Description: as §1, §2

S. aureus ATCC 27660 [3] = assay: MIC determination; type: cell-based; conditions: Staphylococcus aureus, ATCC27660; mecA positive, resistant to methicillin, oxacillin, tetracycline; Tables 1 and 5; read-out: MIC
Description: as §1, §2

S. oralis ATCC 9811 = assay: MIC determination; type: cell-based; conditions: Streptococcus oralis, ATCC9811
Description: as §1, §2

S. aureus NRS100 (COL) = assay: MIC determination; type: cell-based; conditions: Staphylococcus aureus, mecA positive, resistant to methicillin, oxacillin, tetracycline, Tables 1 and 5, read-out: MIC
Description: as §1, §2

S. pyogenes ATCC 49399 = assay: MIC determination; type: cell-based; conditions: Streptococcus pyogenes, ATCC49399
Description: as §1, §2

S. aureus VRS2 = assay: MIC determination; type: cell-based; conditions: Staphylococcus aureus; vancomycin-resistant MRSA (vanA) isolate from Pennsylvania; Tables 1 and 5; read-out: MIC
Description: as §1, §2

[4] = test system: B. licheniformis ATCC 12759; assay: MIC determination; type: cell-based; conditions: Bacillus licheniformis, ATCC12759; Tables 1 and 5; read-out: MIC
Description: as §1, §2

E. faecalis ATCC 29212 = assay: MIC determination; type: cell-based; conditions: Enterococcus faecalis, ATCC29212; quality-control strain; Tables 1 and 5; read-out: MIC
Description: as §1, §2

S. epidermis ATCC 35547 [5] = assay: MIC determination; type: cell-based
Description: as §1, §2

S. aureus NRS120 = assay: MIC determination; type: cell-based; conditions: Staphylococcus aureus, mecA positive, linezolid-resistant, Tables 1 and 5, read-out: MIC
Description: as §1, §2

[6] = test system: E. faecium 119-39A (Van S); assay: MIC determination; type: cell-based; conditions: Enterococcus faecium
Description: as §1, §2

S. aureus VRS1 [7] = assay: MIC determination; type: cell-based; conditions: Staphylococcus aureus; vancomycin-resistant MRSA (vanA) isolate from Michigan; Tables 1 and 5; read-out: MIC
Description: as §1, §2

S. aureus ATCC 29213 = assay: MIC determination; type: cell-based, Staphylococcus aureus; conditions: Staphylococcus aureus, ATCC29213, quality-control, methicillin-susceptible strain; Tables 1 and 5; read-out: MIC
E. faecium NCTC 7171 = assay: MIC determination; type: cell-based, Enterococcus faecium; conditions: Enterococcus faecium, NCTC7171
S. aureus ATCC 27660 [8] = assay: Mouse peritonitis model of infection; type: in vivo; conditions: po, single dose given at 1 h after infection
Protocol: Compounds 60b, 60c, 65b, 66b, 75b and 76b were evaluated in the mouse peritonitis model of infection (Table 2). We used the ICR out-bred strain of mice that provides a heterogeneous population, similar to the human situation, thus, ensuring the relevance of the antibacterial effect. This animal model of infection is widely used, it is easy to carry out, and the end points (death or survival) are rapidly assessed, making it less resource-intensive compared to other infection models. In addition, excellent correlation between MIC and ED50 has been shown for 14 β-lactam antibiotics using this model (Kratochwil et al., Biochem. Pharmacol. 2002, 64, 1355). The mouse peritonitis infection model continues to be an important model for evaluation of the efficacy of antibiotics against human pathogens. We use the iv route of administration in initial efficacy studies, as this allows us to test the efficacy without knowledge of the oral bioavailability of the lead. Evaluation was done at 20 mg/kg.
Female ICR mice (6-8 weeks old, ˜20-g body weight) were used for the PK and peritonitis studies. Animals were purchased from Harlan Laboratories, Inc. (Indianapolis, Ind., USA) and given Teklad 2019 Extruded Rodent Diet and water ad libitum. Mice were maintained in polycarbonate shoebox cages with ¼″ corncob (The Andersons Inc., Maumee, Ohio) and Alpha-dri (Sheperd Specialty Papers, Inc., Richland, Mich.) bedding under 12-h light/12-h dark cycle at 72±2° F.
The mouse peritonitis model was used with S. aureus ATCC 27660, as described previously (Tran et al., Am. J. Clin. Dermatol. 2015; doi 10.1007/S40257-015-0125-9). The final bacterial inocula contained 5×10^7 cfu/mL and 5% mucin (Sigma-Aldrich Chemical Co., St Louis, Mo., USA). Just prior to inoculation, bacteria at 10^8 cfu/mL were mixed 1:1 with 10% mucin. Mice (n=6 per group) were given 0.5 mL of the bacterial inocula intraperitoneally. Mice were given two iv doses of the compounds at 30 min and 7.5 h after infection by tail vein injection. […] Mice were monitored for 48 h, at which time the number of surviving mice were counted.
The effective dose that results in survival of 50% of the mice was determined using Probit analysis (XLSTAT, New York, N.Y.). Groups of six mice per dose level were evaluated in the mouse peritonitis infection model at iv doses of 2.5, 5, 7.5, 10, 15, and 20 mg/kg and after po doses at 2.5, 5, 10, 20, and 40 mg/kg. […]

[9] = cited from earlier work
S. aureus VRS1 [10] = conditions: vancomycin, data from reference 10; Table 5; cited from earlier work
E. faecium 106 (Van R) [11] = conditions: vancomycin, data from reference 10; Table 5; cited from earlier work
S. epidermis ATCC 35547 [12] = conditions: vancomycin, data from reference 10; Table 5; cited from earlier work
E. faecium C68 = conditions: vancomycin, data from reference 12; Table 5; cited from earlier work
[13] = test system: E. faecium 119-39A (Van S); conditions: vancomycin, data from reference 10; Table 5; cited from earlier work

- MIC (E. faecalis 99 (Van R)): 1 µg/mL (≈ 2.96 µM)
- MIC (E. faecalis 201 (Van S)): 2 µg/mL (≈ 5.93 µM)
- MIC (E. faecium 106 (Van R) [1]; vancomycin-resistant clinical isolate, Tables 1 and 5, read-out: MIC): 1 µg/mL (≈ 2.96 µM)
- MIC (B. cereus ATCC 13061): 1 µg/mL (≈ 2.96 µM)
- MIC (S. aureus NRS119): 32 µg/mL (≈ 94.9 µM)
- MIC (S. aureus ATCC 27660 [3]): 2 µg/mL (≈ 5.93 µM)
- MIC (S. oralis ATCC 9811; Table 1, read-out: MIC): 1 µg/mL (≈ 2.96 µM)
- MIC (S. aureus NRS100 (COL)): 2 µg/mL (≈ 5.93 µM)
- MIC (S. pyogenes ATCC 49399; Table 1, read-out: MIC): 1 µg/mL (≈ 2.96 µM)
- MIC (S. aureus VRS2): 2 µg/mL (≈ 5.93 µM)
- MIC [4]: 1 µg/mL (≈ 2.96 µM)
- MIC (E. faecalis ATCC 29212): 2 µg/mL (≈ 5.93 µM)
- MIC (S. epidermis ATCC 35547 [5]; Tables 1 and 5, read-out: MIC): 1 µg/mL (≈ 2.96 µM)
- MIC (S. aureus NRS120): 32 µg/mL (≈ 94.9 µM)
- MIC ([6]; vancomycin-susceptible clinical isolate, Tables 1 and 5, read-out: MIC): 2 µg/mL (≈ 5.93 µM)
- MIC (S. aureus VRS1 [7]): 2 µg/mL (≈ 5.93 µM)
- MIC (S. aureus ATCC 29213): 4 µg/mL (≈ 11.9 µM)
- MIC (E. faecium NCTC 7171; Table 1, read-out: MIC): 2 µg/mL (≈ 5.93 µM)
Compound: CC(=O)NC[C@H]1CN(c2ccc(N3CCOCC3)c(F)c2)C(=O)O1 [linezolid, reference compound]
- MIC [2]: 2 µg/mL (≈ 5.93 µM)
- ED50 (S. aureus ATCC 27660 [8]; Staphylococcus aureus, ATCC27660, read-out: ED50): 2.8 mg/kg
- ED50 (S. aureus ATCC 27660 [8]): 2.8 mg/kg

Compound: Cc1onc(-c2ccccc2)c1C(=O)N[C@@H]1C(=O)N2[C@@H]1SC(C)(C)[C@@H]2C(=O)O [oxacillin]
- Plasma protein binding [9]: > 91%

Compound: CN[C@H](CC(C)C)C(=O)N[C@H]1C(=O)N[C@@H](CC(N)=O)C(=O)N[C@H]2C(=O)N[C@H]3C(=O)N[C@H](C(=O)N[C@H](C(=O)O)c4cc(O)cc(O)c4-c4cc3ccc4O)[C@H](O)c3ccc(c(Cl)c3)Oc3cc2cc(c3O[C@@H]2O[C@H](CO)[C@@H](O)[C@H](O)[C@H]2O[C@H]2C[C@](C)(N)[C@H](O)[C@H](C)O2)Oc2ccc(cc2Cl)[C@H]1O [vancomycin, reference compound]
- MIC (E. faecium 106 (Van R) [1]): 256 µg/mL (≈ 177 µM)
- MIC (S. oralis ATCC 9811): 0.5 µg/mL (≈ 0.345 µM)
- MIC (S. pyogenes ATCC 49399): 0.6 µg/mL (≈ 0.414 µM)
- MIC (S. epidermis ATCC 35547 [5]): 16 µg/mL (≈ 11 µM)
- MIC [6]: 0.5 µg/mL (≈ 0.345 µM)
- MIC (E. faecium NCTC 7171): 0.5 µg/mL (≈ 0.345 µM)
- MIC (S. aureus VRS1 [10]): 512 µg/mL (≈ 353 µM)
- MIC (E. faecium 106 (Van R) [11]): 256 µg/mL (≈ 177 µM)
- MIC (S. epidermis ATCC 35547 [12]): 16 µg/mL (≈ 11 µM)
- MIC (E. faecium C68): 64^k μg/mL
- MIC [13]: 0.5 µg/mL (≈ 0.345 µM)

Compound: teicoplanin
- Plasma protein binding [9]: > 91%
